This passage reports TGI results from PubChem BioAssay (NCI).

What all share (assay): NCI-60 cell line screen, 48 h
Experiment [1] relates to 786-0 renal.
The test system of experiment [2] is CCRF-CEM leukemia.
The subject of experiment [3] is HCT-116 colon.
Experiment [4] concerns HCT-15 colon.
Experiment [5] concerns K-562 leukemia.
For experiment [6], the system named is KM12 colon.
For experiment [7], the system named is MALME-3M melanoma.
For experiment [8], the system named is OVCAR-3 ovarian.
The test system of experiment [9] is OVCAR-4 ovarian.
In experiment [10] the test system is OVCAR-8 ovarian.
Experiment [11] concerns RXF 393 renal.
In experiment [12] the test system is SF-539 CNS.
Experiment [13] deals with SK-MEL-28 melanoma.
Experiment [14] has as its system UACC-257 melanoma.
The test system of experiment [15] is UACC-62 melanoma.
Experiment [16] deals with CAKI-1 renal.
Experiment [17] concerns RPMI-8226 leukemia.
In experiment [18] the test system is PC-3 prostate.
Experiment [19] concerns DU-145 prostate.

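Tested at 5 concentrations; 48 h exposure; 96-well plates; endpoints linearly interpolated, else capped at highest concentration. TGI: total growth inhibition.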 Bounds are passed on as bounds.

As to `COc1ccc(CNC2=C(NC(C)=O)C(=O)c3ccccc3C2=O)cc1`, the TGI was more than 50 µM in [1]; 24.7 µM in experiment [2]; 19.9 µM in [3]; more than 50 µM in [4]; 26.4 µM in experiment [5]; more than 50 µM in experiment [6]. Moreover, the TGI in [7] was 15.2 µM; in [8], 20.8 µM; in experiment [9], 15.1 µM; in experiment [10] it was more than 50 µM; in experiment [11] it was 12.8 µM; in experiment [12], 21.9 µM. Besides, the TGI in experiment [13] is more than 50 µM; in experiment [14] it was 21.7 µM; in experiment [15], 33.5 µM.
Consider `O=C(NCc1ccccc1)c1cc2cc(O)c(O)cc2cn1`, for which the TGI in [1] was more than 100 µM; in experiment [16] it was 98.5 µM; in [2] it was more than 100 µM; in experiment [3] it was more than 100 µM; in experiment [4], more than 100 µM; in experiment [5], more than 100 µM. Further, the TGI in [6] was more than 100 µM; in experiment [7], more than 100 µM; in experiment [8], more than 100 µM; in experiment [9] it was more than 100 µM; in experiment [10], 89.7 µM; in [17] it was more than 100 µM. For the same molecule, the TGI in [11] is 62.3 µM; in experiment [12] it was more than 100 µM; in experiment [13] it was more than 100 µM; in experiment [14], 73.1 µM; in experiment [15], 44.8 µM.
On to `CC1(C)C(O)C[C@]23CCC[C@](C)(C[C@@H](O)C12)C3` (some centres not stated), for which the TGI in experiment [1], in experiment [16], in experiment [2], in [4], in experiment [5] and in [6] was more than 100 µM in each case. The TGI in [7], in experiment [8], in experiment [9], in experiment [10], in [18] and in [17] was more than 100 µM in each case. Further, the TGI in experiment [13], in experiment [14] and in experiment [15] was more than 100 µM throughout.
In the case of `COC1O[C@@H]2CCN3C(=O)[C@@H](OC(=O)c4ccc([N+](=O)[O-])cc4)[C@H]1C23` (some centres not stated), the TGI in [1], in [16], in [2], in [19], in experiment [3] and in [5] was more than 100 µM in each case. For the same molecule, the TGI in [6], in experiment [8], in [10], in experiment [17], in [11] and in experiment [12] was more than 100 µM in each case. Further, the TGI in experiment [14] and in experiment [15] was more than 100 µM each time.
`Cn1c(=O)c2c(no[n+]2[O-])n(C)c1=O`: the TGI is 71.8 µM in experiment [1]; 35.2 µM in [16]; more than 100 µM in experiment [2]; more than 100 µM in experiment [3]; more than 100 µM in [4]; more than 100 µM in experiment [5]. In addition, the TGI in experiment [6] was more than 100 µM; in [7], 40 µM; in [8], more than 100 µM; in experiment [9], more than 100 µM; in [10], 37 µM; in experiment [18], more than 100 µM. Besides, the TGI in experiment [17] was more than 100 µM; in experiment [11], 94.2 µM; in [12], more than 100 µM; in experiment [14] it was 84.6 µM; in [15] it was 40.5 µM.
Take `CC(C)(C)[Si](C)(C)OCCCCC1CC2(S(=O)(=O)C3=CC=C=C=C3)ON1CC2S(=O)(=O)c1ccccc1` (configuration not stated): the TGI in experiment [1], in experiment [19], in experiment [3], in [4], in experiment [5] and in experiment [6] was more than 100 µM throughout. The TGI in [8], in [9], in [10], in experiment [17], in experiment [11] and in experiment [12] was more than 100 µM in each case. The TGI in experiment [13], in experiment [14] and in experiment [15] was more than 100 µM in each case.
Take `Cn1c(=O)[nH]c2[nH]c3ccccc3c2c1=O`: the TGI in experiment [1], in experiment [16], in [2], in experiment [19], in [3] and in experiment [4] was more than 100 µM throughout. Moreover, the TGI in experiment [5], in [6], in experiment [7], in [8], in [10] and in experiment [17] was more than 100 µM each time. In addition, the TGI in experiment [11], in experiment [12], in experiment [13], in experiment [14] and in [15] was more than 100 µM in each case.
For `COC1=NC(NC2OCC(O)C(O)C2O)=C(NC(C)=O)CN1C` (configuration not stated), the TGI in [1], in experiment [16], in experiment [2], in experiment [19], in [3] and in experiment [4] was more than 100 µM in each case. Also, the TGI in [5], in experiment [6], in experiment [7], in experiment [8], in [9] and in experiment [10] was more than 100 µM in each case. Moreover, the TGI in experiment [17], in experiment [11], in experiment [12], in experiment [13] and in [15] was more than 100 µM throughout.
Turning to `O=C(O)C(Cc1c[nH]c2ccccc12)N=Cc1nc(-c2ccccc2)oc1O` (configuration not stated), the TGI in [1], in experiment [2], in experiment [3], in experiment [4], in [5] and in experiment [7] was more than 100 µM each time. The TGI in [8], in [9], in [10], in experiment [17], in [11] and in experiment [12] was more than 100 µM in each case. For the same molecule, the TGI in experiment [13], in [14] and in experiment [15] was more than 100 µM in each case.
